Experimental findings from patent US8598314B2 (priority 2007, dated 2013) are described below.

In data set [1] the test system is NIH/Swiss female mice. In words: Transient effect on blood glucose and body weight. Format: in vivo. As to conditions: 250 nmol/kg subcutaneous injection; for effect on body weight (in words): FIGS. 14B and 15B; for return of body weight to pre-treatment levels (in words): day 5, FIG. 15B. The protocol: A subcutaneous injection (200 μL) of vehicle (PBS) or test compound was given to NIH/Swiss female mice immediately following baseline glucose and body weight measurement. Tail blood glucose samples were measured (OneTouch® Ultra®, LifeScan Inc., Milpitas, Calif.) at baseline (time=0) and 2, 4, 8, 24, 48, 72 and 96 hrs. Body weight was measured daily. Significant test sample effects were identified by ANONA (p<0.05) followed by Dunnett's post test (GraphPad PRISM®, version 4.00 for Windows, GraphPad Software, San Diego, Calif.). Points in FIG. 14A, FIG. 14B, FIG. 15A and FIG. 15B represent mean±SD (standard deviation).

Data set [2] in a line: Peptide stability in human kidney brush border membranes. As to conditions: Table 6.
Description: The tubes were incubated in VorTemp 56™ (Eurotech Labs, UK) at 37° C. vortexed at 500 RPM. At time points of 0, 1, 2, 3, 4, and 5 hours, 200 μl STOP solution (50% ACN, 1% formic acid) was added to a given tube, and the samples were allowed to incubate until the end of the experiment. The samples were collected after 5 hours, centrifuged, and 200 μl of the supernatants were transferred into mass spectrometry vials. The intensities of the mother ions in each vial were analyzed with API 150EX™ mass spectrometer (Applied Biosystems, Foster City, Calif.) and quantified using the ANALYST™ program.
The hKBBM assay was also performed in the presence of valinepyrrolidide, a DPP-IV inhibitor.
The subject of data set [3] is plasma carboxypeptidase. Nature of the data set: Carboxypeptidase activity assay, PYY(3-36) in human plasma. Format: biochemical. As to conditions: 0.5 mM in human plasma, FIGS. 10-12. The method, then: Carboxypeptidase activity assays were performed in the presence of various agents to test for carboxypeptidase inhibitor activity of the agents.
The remainder of the sample was placed in an incubator at 37° C., mixing at 600 RPM for sixty minutes. At 10 minute intervals, a 100 μl sample of the mixture was removed and transferred to a separate microcentrifuge tubes. Following the transfer of the 100 μL sample at the zero time point and each 10 minute interval, each collected sample was extracted by slow addition of 100 μl cold 0.2% formic acid:acetonitrile, while mixing. After addition of the acetonitrile solution, the sample was vortex mixed at high speed for 15 seconds. The extracted samples were stored at −20° C. for at least 20 minutes and then centrifuged at 11,000×g for 10 minutes at 5° C. The supernatant of each sample was transferred to a new microcentrifuge tube, centrifuged again, and finally transferred for LC/MS analysis. The MS analysis was a Q1 single ion monitoring method that detects the most intense ion of the parent molecule and the peptide fragment of interest.

Where no end group is shown, it is not given here. [ ]: non-standard residue; d: D form. NMeY = CN[C@@H](Cc1ccc(O)cc1)C(=O)O

Regarding `CC[C@H](C)[C@H](NC(=O)[C@H](Cc1ccccc1)NC(=O)[C@H](CC(C)C)NC(=O)[C@H](CCCNC(=N)N)NC(=O)[C@@H](NC(=O)[C@H](C)NC(=O)[C@H](CCC(=O)O)NC(=O)[C@H](CCC(=O)O)NC(=O)[C@H](CCC(=O)O)NC(=O)[C@H](CC(C)C)NC(=O)[C@H](CCC(N)=O)NC(=O)[C@H](CCCCN)NC(=O)[C@H](CO)NC(=O)[C@H](CC(C)C)NC(=O)[C@H](CC(=O)O)NC(=O)[C@H](CO)NC(=O)[C@@H](NC(=O)[C@H](Cc1ccccc1)NC(=O)[C@@H](NC(=O)CNC(=O)[C@H](CCC(=O)O)NC(=O)CNC(=O)[C@@H](N)Cc1c[nH]cn1)[C@@H](C)O)[C@@H](C)O)C(C)C)C(=O)N[C@@H](CCC(=O)O)C(=O)N[C@@H](Cc1c[nH]c2ccccc12)C(=O)N[C@@H](CC(C)C)C(=O)N[C@@H](CCCCN)C(=O)N[C@@H](CCC(N)=O)C(=O)NCC(=O)NCC(=O)N1CCC[C@H]1C(=O)N[C@@H](CO)C(=O)N[C@@H](CCCCN)C(=O)N[C@@H](CCC(=O)O)C(=O)N[C@H](C(=O)N[C@H](C(=O)N[C@@H](CO)C(=O)NCCCC(=O)NCCOCCOCC(=O)NCCCC(=O)NCCCCC(N)C(=O)N1CCSC1)[C@@H](C)CC)[C@@H](C)CC` (stereo partly drawn) [Compound 5932], in data set [1], the “effect on body weight (in words)” value is on record as “decrease in body weight, measurable at day 2” and the “return of body weight to pre-treatment levels (in words)” value is “body weight does not return to pre-treatment levels by day 5”. The “Stability in hKBBM” value in data set [2] is given as 63%.
As to `CC[C@H](C)[C@H](NC(=O)[C@H](Cc1ccccc1)NC(=O)[C@H](CC(C)C)NC(=O)[C@H](CCCNC(=N)N)NC(=O)[C@@H](NC(=O)[C@H](C)NC(=O)[C@H](CCC(=O)O)NC(=O)[C@H](CCC(=O)O)NC(=O)[C@H](CCC(=O)O)NC(=O)[C@H](CC(C)C)NC(=O)[C@H](CCC(N)=O)NC(=O)[C@H](CCCCN)NC(=O)[C@H](CO)NC(=O)[C@H](CC(C)C)NC(=O)[C@H](CC(=O)O)NC(=O)[C@H](CO)NC(=O)[C@@H](NC(=O)[C@H](Cc1ccccc1)NC(=O)[C@@H](NC(=O)CNC(=O)[C@H](CCC(=O)O)NC(=O)CNC(=O)[C@@H](N)Cc1c[nH]cn1)[C@@H](C)O)[C@@H](C)O)C(C)C)C(=O)N[C@@H](CCC(=O)O)C(=O)N[C@@H](Cc1c[nH]c2ccccc12)C(=O)N[C@@H](CC(C)C)C(=O)N[C@@H](CCCCN)C(=O)N[C@@H](CCC(N)=O)C(=O)NCC(=O)NCC(=O)N1CCC[C@H]1C(=O)N[C@@H](CO)C(=O)N[C@@H](CCCCN)C(=O)N[C@@H](CCC(=O)O)C(=O)N[C@H](C(=O)N[C@H](C(=O)N[C@@H](CO)C(=O)NCCCC(=O)NCCOCCOCC(=O)NCCCC(=O)NCCCCC(N)C(=O)N1CCC[C@H]1C#N)[C@@H](C)CC)[C@@H](C)CC` (stereo partly drawn) [Compound 5933], the “effect on body weight (in words)” value in data set [1] is “decrease in body weight, measurable at day 2 which continues at least through day 5”. The “Stability in hKBBM” value in data set [2] was 87%.
For the compound `CC[C@H](C)[C@H](NC(=O)[C@H](Cc1ccccc1)NC(=O)[C@H](CC(C)C)NC(=O)[C@H](CCCNC(=N)N)NC(=O)[C@@H](NC(=O)[C@H](C)NC(=O)[C@H](CCC(=O)O)NC(=O)[C@H](CCC(=O)O)NC(=O)[C@H](CCC(=O)O)NC(=O)[C@H](CC(C)C)NC(=O)[C@H](CCC(N)=O)NC(=O)[C@H](CCCCN)NC(=O)[C@H](CO)NC(=O)[C@H](CC(C)C)NC(=O)[C@H](CC(=O)O)NC(=O)[C@H](CO)NC(=O)[C@@H](NC(=O)[C@H](Cc1ccccc1)NC(=O)[C@@H](NC(=O)CNC(=O)[C@H](CCC(=O)O)NC(=O)CNC(=O)[C@@H](N)Cc1c[nH]cn1)[C@@H](C)O)[C@@H](C)O)C(C)C)C(=O)N[C@@H](CCC(=O)O)C(=O)N[C@@H](Cc1c[nH]c2ccccc12)C(=O)N[C@@H](CC(C)C)C(=O)N[C@@H](CCCCN)C(=O)N[C@@H](CCC(N)=O)C(=O)NCC(=O)NCC(=O)N1CCC[C@H]1C(=O)N[C@@H](CO)C(=O)N[C@@H](CCCCN)C(=O)N[C@@H](CCC(=O)O)C(=O)N[C@H](C(=O)N[C@H](C(=O)N[C@@H](CO)C(=O)NCCOCCOCC(=O)NCCCC[C@H](N)C(=O)N1CC[S+]([O-])C1)[C@@H](C)CC)[C@@H](C)CC` (stereo partly drawn) [Compound 5934], the “Stability in hKBBM” value in data set [2] turned out to be 97%.
On the same count and under the same terms, next, `CC[C@H](C)[C@H](NC(=O)[C@H](Cc1ccccc1)NC(=O)[C@H](CC(C)C)NC(=O)[C@H](CCCNC(=N)N)NC(=O)[C@@H](NC(=O)[C@H](C)NC(=O)[C@H](CCC(=O)O)NC(=O)[C@H](CCC(=O)O)NC(=O)[C@H](CCC(=O)O)NC(=O)[C@H](CC(C)C)NC(=O)[C@H](CCC(N)=O)NC(=O)[C@H](CCCCN)NC(=O)[C@H](CO)NC(=O)[C@H](CC(C)C)NC(=O)[C@H](CC(=O)O)NC(=O)[C@H](CO)NC(=O)[C@@H](NC(=O)[C@H](Cc1ccccc1)NC(=O)[C@@H](NC(=O)CNC(=O)[C@H](CCC(=O)O)NC(=O)CNC(=O)[C@@H](N)Cc1c[nH]cn1)[C@@H](C)O)[C@@H](C)O)C(C)C)C(=O)N[C@@H](CCC(=O)O)C(=O)N[C@@H](Cc1c[nH]c2ccccc12)C(=O)N[C@@H](CC(C)C)C(=O)N[C@@H](CCCCN)C(=O)N[C@@H](CCC(N)=O)C(=O)NCC(=O)NCC(=O)N1CCC[C@H]1C(=O)N[C@@H](CO)C(=O)N[C@@H](CCCCN)C(=O)N[C@@H](CCC(=O)O)C(=O)N[C@H](C(=O)N[C@H](C(=O)N[C@@H](CO)C(=O)NCCOCCOCC(=O)NCCCCC(N)C(=O)N1CCSC1)[C@@H](C)CC)[C@@H](C)CC` (stereo partly drawn) [Compound 5953]: 76%; `CC[C@H](C)[C@H](NC(=O)[C@H](Cc1ccccc1)NC(=O)[C@H](CC(C)C)NC(=O)[C@H](CCCNC(=N)N)NC(=O)[C@@H](NC(=O)[C@H](C)NC(=O)[C@H](CCC(=O)O)NC(=O)[C@H](CCC(=O)O)NC(=O)[C@H](CCC(=O)O)NC(=O)[C@H](CC(C)C)NC(=O)[C@H](CCC(N)=O)NC(=O)[C@H](CCCCN)NC(=O)[C@H](CO)NC(=O)[C@H](CC(C)C)NC(=O)[C@H](CC(=O)O)NC(=O)[C@H](CO)NC(=O)[C@@H](NC(=O)[C@H](Cc1ccccc1)NC(=O)[C@@H](NC(=O)CNC(=O)[C@H](CCC(=O)O)NC(=O)CNC(=O)[C@@H](N)Cc1c[nH]cn1)[C@@H](C)O)[C@@H](C)O)C(C)C)C(=O)N[C@@H](CCC(=O)O)C(=O)N[C@@H](Cc1c[nH]c2ccccc12)C(=O)N[C@@H](CC(C)C)C(=O)N[C@@H](CCCCN)C(=O)N[C@@H](CCC(N)=O)C(=O)NCC(=O)NCC(=O)N1CCC[C@H]1C(=O)N[C@@H](CO)C(=O)N[C@@H](CCCCN)C(=O)N[C@@H](CCC(=O)O)C(=O)N[C@H](C(=O)N[C@H](C(=O)N[C@@H](CO)C(=O)NCCOCCOCC(=O)NCCCC[C@H](N)C(=O)N1CCC[C@H]1C#N)[C@@H](C)CC)[C@@H](C)CC` [Compound 5954, [^14Leu,^28Gln]Exendin-4-(1-32)-fGLP-1-(33-37)-miniPEG-(S)-2,6-diamino-1-(pyrrolidin-2-cyano-1-yl)hexan-1-amide]: 57%.
Consider `CC[C@H](C)[C@H](NC(=O)[C@H](Cc1ccccc1)NC(=O)[C@H](CC(C)C)NC(=O)[C@H](CCCNC(=N)N)NC(=O)[C@@H](NC(=O)[C@H](C)NC(=O)[C@H](CCC(=O)O)NC(=O)[C@H](CCC(=O)O)NC(=O)[C@H](CCC(=O)O)NC(=O)[C@H](CC(C)C)NC(=O)[C@H](CCC(N)=O)NC(=O)[C@H](CCCCN)NC(=O)[C@H](CO)NC(=O)[C@H](CC(C)C)NC(=O)[C@H](CC(=O)O)NC(=O)[C@H](CO)NC(=O)[C@@H](NC(=O)[C@H](Cc1ccccc1)NC(=O)[C@@H](NC(=O)CNC(=O)[C@H](CCC(=O)O)NC(=O)CNC(=O)[C@@H](N)Cc1c[nH]cn1)[C@@H](C)O)[C@@H](C)O)C(C)C)C(=O)N[C@@H](CCC(=O)O)C(=O)N[C@@H](Cc1c[nH]c2ccccc12)C(=O)N[C@@H](CC(C)C)C(=O)N[C@@H](CCCCN)C(=O)N[C@@H](CCC(N)=O)C(=O)NCC(=O)NCC(=O)N1CCC[C@H]1C(=O)N[C@@H](CO)C(=O)N[C@@H](CCCCN)C(=O)N[C@@H](CCC(=O)O)C(=O)N[C@H](C(=O)N[C@H](C(=O)N[C@@H](CO)C(=O)NCCCC(=O)NCCOCCOCC(=O)NCCCC(=O)NCCCCC(N)C(=O)N1CCS(=O)(=O)C1)[C@@H](C)CC)[C@@H](C)CC` (stereo partly drawn) [Compound 5955], for which, in data set [1], the “effect on body weight (in words)” value was “decrease in body weight, measurable at day 2” and the “return of body weight to pre-treatment levels (in words)” value is recorded as “body weight returns to pre-treatment levels by day 5”. The “Stability in hKBBM” value in data set [2] is on record as 36%.
Consider “^36N-methyl-Tyr-amide-PYY(34-36) (Gln-Arg-[NMeY]-NH2; N-terminus assumed; SMILES CN(C(=O)[C@H](CCCNC(=N)N)NC(=O)[C@@H](N)CCC(N)=O)[C@@H](Cc1ccc(O)cc1)C(N)=O) [N-terminal truncation of 36N-methyl-Tyr-amide-PYY(3-36)]”, for which, in data set [3], the “inhibition of the formation of PYY(3-35) (in words)” value was “did not inhibit”.
